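Tested at 5 concentrations; 48 h exposure; 96-well plates; endpoints linearly interpolated, else capped at highest concentration. The concentration for 50% growth inhibition is given as GI50.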 The source made the active and inactive calls. Cut-off read from the data, not from the text of the source: active = GI50 up to about 1.1 µM and inactive = higher.
Tests used:
Assay in all cases: NCI-60 cell line screen, 48 h
ACHN = test system: ACHN
BT-549 = test system: BT-549
CAKI-1 = test system: CAKI-1
COLO 205 = test system: COLO 205
EKVX = test system: EKVX
HCC 2998 = test system: HCC 2998
HL-60 = test system: HL-60
HOP-92 = test system: HOP-92
M14 = test system: M14
MDA-MB-231 = test system: MDA-MB-231
MOLT-4 = test system: MOLT-4
NCI-H522 = test system: NCI-H522
OVCAR-4 = test system: OVCAR-4
OVCAR-8 = test system: OVCAR-8
RPMI-8226 = test system: RPMI-8226
SK-MEL-5 = test system: SK-MEL-5
SK-OV-3 = test system: SK-OV-3
SN12C = test system: SN12C
T47D = test system: T47D
TK-10 = test system: TK-10

Structure (SMILES) | GI50 (ACHN) | GI50 (BT-549) | GI50 (CAKI-1) | GI50 (COLO 205) | GI50 (EKVX) | GI50 (HCC 2998) | GI50 (HL-60) | GI50 (HOP-92) | GI50 (M14) | GI50 (MDA-MB-231) | GI50 (MOLT-4) | GI50 (NCI-H522) | GI50 (OVCAR-4) | GI50 (OVCAR-8) | GI50 (RPMI-8226) | GI50 (SK-MEL-5) | GI50 (SK-OV-3) | GI50 (SN12C) | GI50 (T47D) | GI50 (TK-10)
N=C(N)SCc1ccc(Cl)c2ccccc12.O=[N+]([O-])c1ccc(O)c([N+](=O)[O-])c1 | 12.9 µM (inactive) | 15.6 µM (inactive) | 11.7 µM (inactive) | 6.81 µM (inactive) | 10.3 µM (inactive) | 2.04 µM (inactive) | 2.82 µM (inactive) | 6.67 µM (inactive) | 13 µM (inactive) | 12.7 µM (inactive) | 1.4 µM (inactive) | 7.78 µM (inactive) | 10.9 µM (inactive) | 22.1 µM (inactive) | 1.32 µM (inactive) | 8.61 µM (inactive) | 15.3 µM (inactive) | 11 µM (inactive) | 5.35 µM (inactive) | 6.84 µM (inactive)
OCCn1cnc2c(SCc3ccccc3)ncnc21 | > 100 µM (inactive) | 95.7 µM (inactive) | > 100 µM (inactive) | 95.5 µM (inactive) | > 100 µM (inactive) | > 100 µM (inactive) | 68.1 µM (inactive) | > 100 µM (inactive) | > 100 µM (inactive) | > 100 µM (inactive) | – | 97.9 µM (inactive) | > 100 µM (inactive) | > 100 µM (inactive) | 97.5 µM (inactive) | > 100 µM (inactive) | > 100 µM (inactive) | > 100 µM (inactive) | > 100 µM (inactive) | > 100 µM (inactive)
O=C(O)c1cc(C(=O)O)cc(N2C(=O)c3ccccc3C2=O)c1 | > 100 µM (inactive) | > 100 µM (inactive) | > 100 µM (inactive) | > 100 µM (inactive) | > 100 µM (inactive) | > 100 µM (inactive) | > 100 µM (inactive) | > 100 µM (inactive) | > 100 µM (inactive) | > 100 µM (inactive) | – | > 100 µM (inactive) | > 100 µM (inactive) | > 100 µM (inactive) | > 100 µM (inactive) | > 100 µM (inactive) | > 100 µM (inactive) | > 100 µM (inactive) | > 100 µM (inactive) | > 100 µM (inactive)
Cc1ccc(C2CC(=O)CC(c3ccc(C)cc3)C23C(=O)NC(=O)NC3=O)cc1 (centres undefined) | > 100 µM (inactive) | > 100 µM (inactive) | > 100 µM (inactive) | > 100 µM (inactive) | > 100 µM (inactive) | > 100 µM (inactive) | > 10 µM (inactive) | > 100 µM (inactive) | > 100 µM (inactive) | > 100 µM (inactive) | 45 µM (inactive) | > 100 µM (inactive) | 71.1 µM (inactive) | > 100 µM (inactive) | > 100 µM (inactive) | > 100 µM (inactive) | – | > 100 µM (inactive) | > 100 µM (inactive) | > 100 µM (inactive)
COc1ccc(C(CC2(c3ccc(OC)cc3)SCCCS2)NC(C)=O)cc1 (centres undefined) | 63 µM (inactive) | 41.9 µM (inactive) | 72.3 µM (inactive) | 25.1 µM (inactive) | 52.8 µM (inactive) | 42.6 µM (inactive) | 18.7 µM (inactive) | 83.6 µM (inactive) | 94 µM (inactive) | > 100 µM (inactive) | 30.1 µM (inactive) | 29.2 µM (inactive) | – | 42.3 µM (inactive) | 38.5 µM (inactive) | 18.4 µM (inactive) | 40.8 µM (inactive) | 29.6 µM (inactive) | 24.2 µM (inactive) | 39.8 µM (inactive)
COc1cc(OC)c(C2(c3c(OC(C)C)c(=O)c3=O)SCCCS2)cc1OC | > 100 µM (inactive) | > 100 µM (inactive) | > 100 µM (inactive) | > 100 µM (inactive) | > 100 µM (inactive) | > 100 µM (inactive) | > 100 µM (inactive) | > 100 µM (inactive) | > 100 µM (inactive) | > 100 µM (inactive) | – | > 100 µM (inactive) | > 100 µM (inactive) | > 100 µM (inactive) | > 100 µM (inactive) | > 100 µM (inactive) | > 100 µM (inactive) | > 100 µM (inactive) | > 100 µM (inactive) | > 100 µM (inactive)
Cc1c(-c2ccccc2)c(C#N)c2nnn(-c3ccc([N+](=O)[O-])cc3)c(=O)n12 | 22.2 µM (inactive) | 26.9 µM (inactive) | 29.9 µM (inactive) | 7.35 µM (inactive) | 6.32 µM (inactive) | 26.6 µM (inactive) | 1.92 µM (inactive) | 16.5 µM (inactive) | – | 8.15 µM (inactive) | – | 10.2 µM (inactive) | 10.4 µM (inactive) | 10.9 µM (inactive) | 20.7 µM (inactive) | 33 µM (inactive) | 23.4 µM (inactive) | 22.4 µM (inactive) | 21.9 µM (inactive) | 28.1 µM (inactive)
COc1cc(C(=O)Oc2ccc3c(c2)OCO3)cc(OC)c1OC | > 100 µM (inactive) | > 100 µM (inactive) | > 100 µM (inactive) | > 100 µM (inactive) | – | > 100 µM (inactive) | > 100 µM (inactive) | > 100 µM (inactive) | > 100 µM (inactive) | > 100 µM (inactive) | > 100 µM (inactive) | > 100 µM (inactive) | > 100 µM (inactive) | > 100 µM (inactive) | > 100 µM (inactive) | > 100 µM (inactive) | > 100 µM (inactive) | > 100 µM (inactive) | > 100 µM (inactive) | > 100 µM (inactive)
O=P1(N(CCCl)CCCl)Oc2ccc(Cl)cc2Sc2c(ccc(Cl)c2Cl)O1 (centres undefined) | 7.41 µM (inactive) | 29.1 µM (inactive) | 15.2 µM (inactive) | 8.18 µM (inactive) | 8.57 µM (inactive) | 16.5 µM (inactive) | 4.1 µM (inactive) | 4.42 µM (inactive) | 17.8 µM (inactive) | 12.3 µM (inactive) | 3.96 µM (inactive) | 6.4 µM (inactive) | 23.9 µM (inactive) | 8.71 µM (inactive) | 5.02 µM (inactive) | 5.02 µM (inactive) | 21.9 µM (inactive) | 11.9 µM (inactive) | 8.38 µM (inactive) | 9.18 µM (inactive)
CON(C(=O)OC(C)(C)C)c1ccccc1 | > 100 µM (inactive) | 43.6 µM (inactive) | > 100 µM (inactive) | > 100 µM (inactive) | > 100 µM (inactive) | > 100 µM (inactive) | > 100 µM (inactive) | > 100 µM (inactive) | > 100 µM (inactive) | > 100 µM (inactive) | > 100 µM (inactive) | > 100 µM (inactive) | > 100 µM (inactive) | > 100 µM (inactive) | > 100 µM (inactive) | > 100 µM (inactive) | > 100 µM (inactive) | – | > 100 µM (inactive) | > 100 µM (inactive)
Cc1ccc(NC(=O)c2cc(S(=O)(=O)Nc3nc4cccnc4[nH]3)c(SSc3cc(Cl)c(C(=O)Nc4ccc(C)cc4)cc3S(=O)(=O)Nc3nc4cccnc4[nH]3)cc2Cl)cc1 | > 100 µM (inactive) | > 100 µM (inactive) | > 100 µM (inactive) | > 100 µM (inactive) | > 100 µM (inactive) | > 100 µM (inactive) | > 100 µM (inactive) | > 100 µM (inactive) | > 100 µM (inactive) | > 100 µM (inactive) | > 100 µM (inactive) | > 100 µM (inactive) | > 100 µM (inactive) | > 100 µM (inactive) | > 100 µM (inactive) | > 100 µM (inactive) | > 100 µM (inactive) | > 100 µM (inactive) | > 100 µM (inactive) | > 100 µM (inactive)
O=P(NC12CC3CC(CC(C3)C1)C2)(N1CC1)N1CC1 | 4.67 µM (inactive) | > 100 µM (inactive) | 1.82 µM (inactive) | > 100 µM (inactive) | > 100 µM (inactive) | > 100 µM (inactive) | 3.09 µM (inactive) | 18.5 µM (inactive) | 37.1 µM (inactive) | > 100 µM (inactive) | 3.3 µM (inactive) | 25.7 µM (inactive) | > 100 µM (inactive) | 43 µM (inactive) | > 66.1 µM (inactive) | 34.9 µM (inactive) | > 55.5 µM (inactive) | 10.5 µM (inactive) | 94.8 µM (inactive) | > 100 µM (inactive)
C=C(C)C12OC1[C@@]1(C)C(=CC2=O)CCC(O)[C@@H]1C (some centres undefined) | 0.417 µM (active) | 4.19 µM (inactive) | 0.398 µM (active) | 1.61 µM (inactive) | 1.94 µM (inactive) | 0.718 µM (active) | 1.16 µM (inactive) | 16.7 µM (inactive) | 3.72 µM (inactive) | 1.52 µM (inactive) | 0.863 µM (active) | 0.782 µM (active) | 3.45 µM (inactive) | 1.45 µM (inactive) | 2.43 µM (inactive) | 3.22 µM (inactive) | – | 1.36 µM (inactive) | 3.16 µM (inactive) | 3.73 µM (inactive)
NS(=O)(=O)c1ccc(C(=O)O)cc1 [CARZENIDE] | > 100 µM (inactive) | > 100 µM (inactive) | > 100 µM (inactive) | > 100 µM (inactive) | > 100 µM (inactive) | – | > 100 µM (inactive) | 97.5 µM (inactive) | > 100 µM (inactive) | > 100 µM (inactive) | > 100 µM (inactive) | > 100 µM (inactive) | > 100 µM (inactive) | > 100 µM (inactive) | > 100 µM (inactive) | > 100 µM (inactive) | > 100 µM (inactive) | > 100 µM (inactive) | > 100 µM (inactive) | > 100 µM (inactive)

— ChEMBL document CHEMBL1201862, “PubChem BioAssay data set” (2004)
